{"source": "patent US5582814A", "about": "“1-(p-n-butylbenzyl) DTPA for magnetic resonance imaging” (Metasyn, Inc., priority 1994, dated 1996)", "key": {"[1]": {"experiment": "Relaxivity in rat liver cytosol", "assay_type": "biochemical", "details": "20 MHz, 37° C.; Gd(III) complexes in rat liver cytosol", "procedure": "The relaxivity of the Gd(III) complexes in cytosol was measured at 37 ° C. using a Bruker 20MHz Minispec equipped with a variable temperature probe. The inversion-recovery pulse sequence with 10 data points was used for T1 measurements. 1/T1 relaxation rates of solutions with varying concentrations of the chelates (0.01-0.5 mM) were determined. The limiting slope of the 1/T1 vs concentration plot at low concentrations of the chelates in units of s^-1 mM^-1 was taken as the relaxivity (R1) of the chelate in cytosol.\nHigher relaxivity values imply higher binding affinity to cytosolic proteins and/or greater relaxivity when bound."}, "[2]": {"experiment": "1/T1 relaxation rates of excised rat liver", "assay_type": "in vivo, Sprague Dawley rat", "details": "50 μmol/kg tail vein, 20 MHz, 37° C.", "procedure": "Rats (approx. 3 per time period) were euthanized by cervical dislocation (while anesthetized by CO2) at 1, 5 and 30 min. post-injection. […] The percentage of the injected dose (% ID) in the liver was determined for each time point and the integrated area under the mean liver % ID time curve (AUC) was calculated.\nFor the 5 min. time period, the 1/T1 proton relaxation rate of the excised liver was measured at 20MHz and 37° C. as described above. Higher 1/T1 values are associated with greater MRI signal intensity on T1 -weighted images and are due to greater liver uptake of the agent and/or greater relaxivity in the microenvironments of the liver."}, "[3]": {"experiment": "Rat liver uptake of 153Gd-labeled chelates", "assay_type": "in vivo, Sprague Dawley rat", "details": "50 μmol/kg tail vein", "procedure": "Un-anesthetized adult male Sprague Dawley rats (200-300 g) were injected in the tail vein with 50 μmol/kg of gadolinium chelate labeled with ^153 Gd. Rats (approx. 3 per time period) were euthanized by cervical dislocation (while anesthetized by CO2) at 1, 5 and 30 min. post-injection. The liver was analyzed for ^153 Gd concentration using a gamma counter. The percentage of the injected dose (% ID) in the liver was determined for each time point and the integrated area under the mean liver % ID time curve (AUC) was calculated."}, "[4]": {"details": "in vivo", "experimental": "Anesthetized (pentobarbital, 35 mg/kg, ip.) adult rabbits (2.5-4 kg) were administered 50 μmol/kg of a ^153 Gd-labeled chelate (approximately30 μCi/kg) via a cannulated marginal ear vein. Rabbits (1 per compound) were positioned supine under a gamma camera set with a photo peak energy of 100 keV +/- 20% and equipped with a low energy parallel hole collimator. Immediately after chelate administration, dynamic planar whole body scintigraphy was performed every five minutes for at least one hour. Images were acquired in a 64×64 matrix, and region of interest (ROI) analysis was performed using the Image 1.52 software package (National Institutes of Health). Percent injected does (% ID) in the liver at 5 min. intervals was calculated by dividing the counts in the liver ROI by the total counts in the body."}, "[5]": {"experiment": "Biliary excretion in monkeys", "details": "monkey, n = 2, 50 μmol/kg iv bolus", "experimental": "Two adult male cynomolgus monkeys used for scintigraphic imaging were injected on different days with iv bolus of 50 μmol/kg of the chelates labeled with ^153 Gd (approximately 40 μCi/kg). Following completion of the imaging study, the animals were placed in metabolic cages and their total urine void and excreted feces were measured using a gamma counter at 24 and 48 hr post compound administration."}, "[6]": {"experiment": "Liver and bile specificity relative to structurally similar contrast agents (summary statement)", "assay_type": "in vivo", "details": "relative to structurally similar contrast agents previously disclosed", "source_text": "Thus, this invention provides a method for tissue-specific contrast enhancement of MR images of mammalian organs and tissues. In particular, the method allows for contrast enhancement of MR images of the hepatobiliary system. […] MS-264 can also be used for tissue-specific imaging of tumors and the blood pool."}}, "data": [{"compound": "Cc1ccc(CC(CN(CCN(CC(=O)O)CC(=O)O)CC(=O)O)N(CC(=O)O)CC(=O)O)c(C)c1", "note": "(centres unmarked) [1-(2,4-di-Me-benzyl)]", "values": [{"measurement": "R1 in liver cytosol (relaxivity)", "setting": "[1]", "result": 15.3, "unit": "s⁻¹ mM⁻¹"}, {"measurement": "1/T1 of excised rat liver 5 min. post-inj.", "setting": "[2]", "result": "10.2 ± 0.6", "unit": "s⁻¹"}, {"measurement": "Area under the % inj. dose in rat liver vs time curve (AUC) from 0 to 30 min", "setting": "[3]", "result": 404}]}, {"compound": "O=C(O)CN(CCN(CC(=O)O)CC(Cc1ccccc1)N(CC(=O)O)CC(=O)O)CC(=O)O", "note": "(centres unmarked) [1-(benzyl)]", "values": [{"measurement": "R1 in liver cytosol (relaxivity)", "setting": "[1]", "result": 11.7, "unit": "s⁻¹ mM⁻¹"}, {"measurement": "Area under the % inj. dose in rat liver vs time curve (AUC) from 0 to 30 min", "setting": "[3]", "result": 213}]}, {"compound": "CCOc1ccc(C[C@@H](CN(CCN(CC(=O)O)CC(=O)O)CC(=O)O)N(CC(=O)O)CC(=O)O)cc1", "note": "[1-(p-ethoxybenzyl)]", "values": [{"measurement": "Area under the % inj. dose in rabbit liver vs time curve (AUC) from 0 to 30 min", "setting": "[4]", "result": 480}, {"measurement": "R1 in liver cytosol (relaxivity)", "setting": "[1]", "result": 14.4, "unit": "s⁻¹ mM⁻¹"}, {"measurement": "% of recovered activity in feces (biliary excretion) of monkeys over 48 hr", "setting": "[5]", "result": "35 ± 3", "unit": "%"}, {"measurement": "1/T1 of excised rat liver 5 min. post-inj.", "setting": "[2]", "result": "10.1 ± 1.5", "unit": "s⁻¹"}, {"measurement": "Area under the % inj. dose in rat liver vs time curve (AUC) from 0 to 30 min", "setting": "[3]", "result": 408}]}, {"compound": "CCc1ccc(CC(CN(CCN(CC(=O)O)CC(=O)O)CC(=O)O)N(CC(=O)O)CC(=O)O)cc1", "note": "(centres unmarked) [1-(p-ethylbenzyl)]", "values": [{"measurement": "Area under the % inj. dose in rabbit liver vs time curve (AUC) from 0 to 30 min", "setting": "[4]", "result": 553}, {"measurement": "R1 in liver cytosol (relaxivity)", "setting": "[1]", "result": 16.4, "unit": "s⁻¹ mM⁻¹"}, {"measurement": "% of recovered activity in feces (biliary excretion) of monkeys over 48 hr", "setting": "[5]", "result": "48 ± 10", "unit": "%"}, {"measurement": "1/T1 of excised rat liver 5 min. post-inj.", "setting": "[2]", "result": "12.3 ± 0.9", "unit": "s⁻¹"}, {"measurement": "Area under the % inj. dose in rat liver vs time curve (AUC) from 0 to 30 min", "setting": "[3]", "result": 469}]}, {"compound": "CC(C)c1ccc(CC(CN(CCN(CC(=O)O)CC(=O)O)CC(=O)O)N(CC(=O)O)CC(=O)O)cc1", "note": "(centres unmarked) [1-(p-isopropylbenzyl)]", "values": [{"measurement": "Area under the % inj. dose in rabbit liver vs time curve (AUC) from 0 to 30 min", "setting": "[4]", "result": 910}, {"measurement": "R1 in liver cytosol (relaxivity)", "setting": "[1]", "result": 18.7, "unit": "s⁻¹ mM⁻¹"}, {"measurement": "1/T1 of excised rat liver 5 min. post-inj.", "setting": "[2]", "result": "10.9 ± 1.2", "unit": "s⁻¹"}, {"measurement": "Area under the % inj. dose in rat liver vs time curve (AUC) from 0 to 30 min", "setting": "[3]", "result": 400}]}, {"compound": "O=C(O)CN(CCN(CC(=O)O)CC(CCc1ccccc1)N(CC(=O)O)CC(=O)O)CC(=O)O", "note": "(centres unmarked) [1-(phenylethyl)]", "values": [{"measurement": "R1 in liver cytosol (relaxivity)", "setting": "[1]", "result": 13.6, "unit": "s⁻¹ mM⁻¹"}]}, {"compound": "O=C(O)CN(CCN(CC(=O)O)CC(=O)O)CCN(CC(=O)O)C(COCc1ccccc1)C(=O)O", "note": "(centres unmarked) [BOPTA]", "values": [{"measurement": "R1 in liver cytosol (relaxivity)", "setting": "[1]", "result": 11.3, "unit": "s⁻¹ mM⁻¹"}]}, {"compound": "diethylenetriamine pentaacetic acid [DTPA]", "values": [{"measurement": "R1 in liver cytosol (relaxivity)", "setting": "[1]", "result": 7.1, "unit": "s⁻¹ mM⁻¹"}, {"measurement": "1/T1 of excised rat liver 5 min. post-inj.", "setting": "[2]", "result": "4.64 ± 0.16", "unit": "s⁻¹"}, {"measurement": "Area under the % inj. dose in rat liver vs time curve (AUC) from 0 to 30 min", "setting": "[3]", "result": 35}]}, {"compound": "gadolinium(III)-1-(p-n-butylbenzyl)diethylenetriamine pentaacetate dimeglumine salt [MS-264]", "values": [{"measurement": "Area under the % inj. dose in rabbit liver vs time curve (AUC) from 0 to 30 min", "setting": "[4]", "result": 1120}, {"measurement": "R1 in liver cytosol (relaxivity)", "setting": "[1]", "result": 23.8, "unit": "s⁻¹ mM⁻¹"}, {"measurement": "liver and bile specificity", "setting": "[6]", "result": "surprisingly superior liver and bile specificity"}, {"measurement": "1/T1 of excised rat liver 5 min. post-inj.", "setting": "[2]", "result": "14.6 ± 0.2", "unit": "s⁻¹"}, {"measurement": "Area under the % inj. dose in rat liver vs time curve (AUC) from 0 to 30 min", "setting": "[3]", "result": 491}]}]}
